Where a name gives a salt, the structure may show the parent alone.
Columns and labels:
[1] = Acute toxicity of aspirin with and without oleanolic acid; type: in vivo; settings: mouse, in vivo, po, mice, mixture 1:1 mass ratio
[2] = tested on: mice; experiment: as above; type: in vivo; settings: oral, males, mixture 1:1 mass ratio
[3] = Anti-inflammatory effect: carrageenan induced rat paw oedema; type: in vivo
Method: The compounds (aspirin and oleanolic acid) were administered orally.

[4] = Analgesic effect of aspirin in the presence of oleanolic acid; type: in vivo, rats; settings: Rattus norvegicus, read-out: ED50 (analgesic effect)
Method: (§1) The analgesic effect of the compound was tested in oral application to rats. 45 Minutes after application of the compound, the rats received an intraperitoneal injection of 1.0 ml 1% acetic acid. This causes a series of characteristic spasms in the untreated control animals. Analgesic effects are indicated by the reduction of the frequency of these spasms. The following results were obtained with the compound:
Measurement of the analgesic effect of the test compounds was done as set out in Test 1. The ED50 was computed for the various treatments as follows: […]

[5] = Antithrombotic effect: pulmonary thrombo-embolism in animals treated with arachnidoic acid; type: in vivo; settings: for effect on occurrence of pulmonary thrombo-embolism: animals treated with arachnidoic acid
Description: Oleanolic acid has no effect in this regard.

[6] = Healing effect on chemically induced ulceration (acetic acid); type: in vivo, rats; settings: 100 mg/kg per os twice daily, days 1-10; day 11; vs untreated control
Method: Ulceration was induced by injecting 30% acetic acid into the stomach of the animals on day zero. From day one onwards to day 10 the animals were treated twice daily with the protective compound (100 mg/kg; per os). On day 11 the extent of gastric damage was determined.

[7] = Gastric damage (HCl - Gastrin ulcer) caused by tetragastrin; type: in vivo, rats; settings: 100 mg/kg/treatment per os twice daily, days 1-14; tetragastrin 100 μg/kg/day i.p.; day 15; vs untreated control
Method: Each animal was treated with hydrochloric acid (0,2 ml of a 20% solution; per os) on day zero. From day one onwards to day 14 the animals were treated once daily with tetragastrin (100 μg/kg/day; intraperitoneal injection) and twice daily with the protective compound (100 mg/kg/treatment; per os in tragacanth). On day 15 the extent of gastric damage was determined.

[8] = Analgesic activity (acetic acid induced spasms); type: in vivo; settings: rats; for Average No. of spasms (25 mins): untreated control 43.75
Method: as §1, with “compound: […]” for “compound:”

[9] = Activity against stress induced ulcers; type: in vivo; settings: 100 mg/kg, rats, 24 h plaster bandage; drug 1 h before and 6 h after
Method: The effect of compounds on this formation of stress ulcers is assessed by applying the drugs 1 hour before encasing the animals in the bandage and again 6 hours after encasing the animals. After 24 hours, the bandage is removed and gastric damage is assessed compared to that of untreated animals.

[10] = Effect on gastric damage caused by aspirin; type: in vivo, rats; settings: aspirin approximately 550 mg/kg
Method: (§2) Gastric damage caused by irritant substances (e.g. aspirin, indomethacin or other acidic analgesic/anti-inflammatory drugs) is assessed by applying a suitable dose of the protective compound followed later by a relatively high dose of the irritant (in the case of aspirin, approximately 550 mg/kg). After a further 5 hours, the extent of gastric damage is determined.

[11] = Effect on gastric damage caused by indomethacin; type: in vivo, rats
Method: as §2

[12] = tested on: mice; experiment: Acute toxicity of oleanolic acid; type: in vivo; settings: oral route
[13] = Gastric damage caused by reserpine; type: in vivo, rats; settings: 100 mg/kg per os; reserpine 6 mg/kg s.c.; after 16 hours; vs untreated control
Method: The animals were treated with oleanolic acid (per os; tragacanth vehicle) and directly thereafter with reserpine (6 mg/kg; subcutaneous injection). After 16 hours the extent of gastic damage was determined.

[14] = Healing effect on thermally induced ulceration; type: in vivo, rats; settings: 100 mg/kg per os twice daily, days 1-13; day 14; vs untreated control
Method: Thermal stomach ulceration was induced on day zero by means of a heated (75° C.) stainless steel stamp (5 mm in diameter). From day one onwards to day 13 the animals were treated twice daily with oleanolic acid (100 mg/kg; per os in tragacanth). On day 14 the animals were examined for the extent of gastric damage.

[15] = oral; British Pat. No. 1,251,976, Example 10; cited from earlier work
[16] = mice; Shibata 1981, p. 65; cited from earlier work

## CC(=O)Oc1ccccc1C(=O)O [Aspirin]
[1]; combined
  LD50: 1800 mg/kg
[1]; females
  LD50: 2100 mg/kg
[2]
  LD50: 1110 mg/kg
[3]; aspirin 25 mg/kg oral (combination: plus oleanolic acid 25 mg/kg), 1.5 hrs
  % inhibition of swelling: 12%
[3]; aspirin 25 mg/kg oral (combination: plus oleanolic acid 25 mg/kg), 3 hrs
  % inhibition of swelling: 17%
[3]; aspirin 25 mg/kg oral (combination: plus oleanolic acid 25 mg/kg), 4.5 hrs
  % inhibition of swelling: 11%
[3]; aspirin 25 mg/kg oral (combination: plus oleanolic acid 25 mg/kg), 6 hrs
  % inhibition of swelling: 18%
[3]; aspirin 50 mg/kg oral (combination: plus oleanolic acid 50 mg/kg), 1.5 hrs
  % inhibition of swelling: 18%
[3]; aspirin 50 mg/kg oral (combination: plus oleanolic acid 50 mg/kg), 3 hrs
  % inhibition of swelling: 32%
[3]; aspirin 50 mg/kg oral (combination: plus oleanolic acid 50 mg/kg), 4.5 hrs
  % inhibition of swelling: 17%
[3]; aspirin 50 mg/kg oral (combination: plus oleanolic acid 50 mg/kg), 6 hrs
  % inhibition of swelling: 16%
[3]; aspirin 100 mg/kg oral (combination: plus oleanolic acid 100 mg/kg), 1.5 hrs
  % inhibition of swelling: 30%
[3]; aspirin 100 mg/kg oral (combination: plus oleanolic acid 100 mg/kg), 3 hrs
  % inhibition of swelling: 42%
[3]; aspirin 100 mg/kg oral (combination: plus oleanolic acid 100 mg/kg), 4.5 hrs
  % inhibition of swelling: 32%
[3]; aspirin 100 mg/kg oral (combination: plus oleanolic acid 100 mg/kg), 6 hrs
  % inhibition of swelling: 23%
[3]; aspirin 200 mg/kg oral (combination: plus oleanolic acid 200 mg/kg), 1.5 hrs
  % inhibition of swelling: 45%
[3]; aspirin 200 mg/kg oral (combination: plus oleanolic acid 200 mg/kg), 3 hrs
  % inhibition of swelling: 52%
[3]; aspirin 200 mg/kg oral (combination: plus oleanolic acid 200 mg/kg), 4.5 hrs
  % inhibition of swelling: 34%
[3]; aspirin 200 mg/kg oral (combination: plus oleanolic acid 200 mg/kg), 6 hrs
  % inhibition of swelling: 30%
[4]; po
  ED50: 22.3 mg/kg
[5]
  effect on occurrence of pulmonary thrombo-embolism: inhibits the occurrence
[5]; read-out: ED50 (antithrombotic effect)
  ED50: 41 mg/kg

## CC1(C)[C@@H](OC(=O)CCC(=O)O)CC[C@]2(C)[C@H]3C(=O)C=C4[C@@H]5C[C@@](C)(C(=O)O)CC[C@]5(C)CC[C@@]4(C)[C@]3(C)CC[C@@H]12 [Carbenoxolone sodium, disodium salt of the hemisuccinate of glycyrrhetinic acid, reference compound]
[6]
  reduction of gastric damage (acetic acid ulceration): 42%

## CN/C(=N/CCSCc1nc[nH]c1C)NC#N [Cimetidine, reference compound]
[7]
  inhibition of gastric damage (HCl - Gastrin ulcer): 41%

## CC1(C)CC[C@]2(C(=O)O)CC[C@]3(C)C(=CC[C@@H]4[C@@]5(C)CC[C@H](O)C(C)(C)[C@@H]5CC[C@]43C)[C@@H]2C1 [Oleanolic acid, oleanolic acid]
[8]; 10 mg/kg oral
  % Inhibition of spasms: 8.6%
  Average No. of spasms (25 mins): 40.0
[8]; 31.6 mg/kg oral
  % Inhibition of spasms: 49.4%
  Average No. of spasms (25 mins): 22.12
[8]; 100 mg/kg oral
  % Inhibition of spasms: 65.7%
  Average No. of spasms (25 mins): 15.10
[9]
  inhibition of the mean total ulceration score: 83.5%
[10]; 30 mg/kg
  Percentage inhibition of Aspirin induced gastric damage: 28%
[10]; 100 mg/kg
  Percentage inhibition of Aspirin induced gastric damage: 49%
[10]; 300 mg/kg
  Percentage inhibition of Aspirin induced gastric damage: 69%
[11]; 10 mg/kg
  Percentage inhibition of Indomethacin induced gastric damage: 61%
[11]; 30 mg/kg
  Percentage inhibition of Indomethacin induced gastric damage: 66%
[11]; 100 mg/kg
  Percentage inhibition of Indomethacin induced gastric damage: 80%
[11]; 300 mg/kg
  Percentage inhibition of Indomethacin induced gastric damage: 86%
[12]
  doses that did not cause any deaths: up to 4000 mg/kg
[13]
  inhibition of reserpine induced gastric damage: 25%
[7]
  inhibition of gastric damage (HCl - Gastrin ulcer): about 49%
[14]
  reduction of gastric damage (thermal ulceration): 59%
[6]
  reduction of gastric damage (acetic acid ulceration): 73%
[4]; rats, oral, acetic acid spasms
  ED50: 55.8 mg/kg
[5]
  effect on occurrence of pulmonary thrombo-embolism: no effect
[15]
  reduction in ulceration (glucose induced): 8%
[16]
  inhibiting activity against stress-induced ulceration: non-significant, if any, inhibiting activity

## CC1(C)CC[C@]2(C(=O)O)CC[C@]3(C)C(=CC[C@@H]4[C@@]5(C)CC[C@H](O)C(C)(C)[C@@H]5CC[C@]43C)[C@@H]2C1 [Sodium oleanolate]
[10]; 30 mg/kg
  Percentage inhibition of Aspirin induced gastric damage: 1%
[10]; 100 mg/kg
  Percentage inhibition of Aspirin induced gastric damage: 30%
[10]; 300 mg/kg
  Percentage inhibition of Aspirin induced gastric damage: 47%

## CC1(C)[C@@H](O)CC[C@]2(C)[C@H]3CC=C4[C@@H]5C[C@@](C)(CO)CC[C@]5(C)CC[C@@]4(C)[C@]3(C)CC[C@@H]12 [olean-12-en-3β, 30-diol, reference compound]
[16]
  inhibiting activity against stress-induced ulceration: promising inhibiting activity
